Measurements from patent US5679675A, “8-amino-10-(azabicycloalkyl)-pyrido[1,2,3-d,e][1,3,4]benzoxadiazine derivatives” (Bayer Aktiengesellschaft, priority 1994, dated 1997).
≈ marks a conversion by molar mass, not a printed value. Like-named read-outs stand apart in the source and are kept apart here.

Experiments:
Experiment in all cases: MIC, serial dilution method on Iso-Sensitest agar
Type in all cases: cell-based
[1] = test system: Klebsiella pneumoniae; details: 37° C., about 20 hours
Description: (§1) The minimum inhibitory concentrations (MIC) of the compounds according to the invention were determined by serial dilution methods on Iso-Sensitest agar (Oxoid). For each test substance, a series of agar plates was prepared which contained decreasing concentrations of the active compound at, in each case, double dilution. The agar plates were inoculated with a multipoint inoculator (Denley). For inoculation, overnight cultures of the pathogens were reed which had previously been diluted such that each inoculation point contained about 10^4 colony-forming particles. The inoculated agar plates were incubated at 37° C., and the growth of microorganism was read off after about 20 hours. The MIC value (μg/ml) indicates the lowest active compound concentration at which no growth was to be detected with the naked eye.

[2] = test system: Staphylococcus aureus; details: about 20 hours
Description: as §1

[3] = test system: Acinetobacter; details: strain 14068, 37° C., about 20 hours
Description: as §1

[4] = test system: Enterococcus faecalis; details: 20 h, about 20 hours
Description: as §1

[5] = test system: Micrococcus luteus; details: strain 9341, 37° C., about 20 hours
Description: as §1

[6] = test system: E. coli; details: Escherichia coli, 37° C., about 20 hours
Description: as §1

[7] = test system: Providencia sp.; details: 20 h, about 20 hours
Description: as §1

[8] = Klebsiella pneumoniae, strain 8085, read-out: MIC
[9] = ATCC29213, 20 h, strain ATCC 29213, 37° C.

Row | SMILES | MIC [1, 8] [µg/mL] | MIC ([1]; strain 63) [µg/mL] | MIC ([2]; 20 h, strain 133, 37° C.) [µg/mL] | MIC ([2]; 20 h, strain ICB 25701, 37° C.) [µg/mL] | MIC ([2]; 20 h, strain ICB 25768, 37° C.) [µg/mL] | MIC [2, 9] [µg/mL] | MIC [3] [µg/mL] | MIC ([4]; strain 9790, 37° C.) [µg/mL] | MIC ([4]; strain 27101, 37° C.) [µg/mL] | MIC [5] [µg/mL] | MIC ([6]; ATCC25922, strain ATCC 25922) [µg/mL] | MIC ([6]; strain Neumann) [µg/mL] | MIC ([7]; strain 12012, 37° C.) [µg/mL] | MIC ([7]; strain 12052, 37° C.) [µg/mL]
1 | CN1COc2c(N3C[C@H]4[C@H](N)CC=C[C@H]4C3)c(F)c(N)c3c(=O)c(C(=O)O)cn1c23 (relative stereo) [Example 11, 8-Amino-10-((1SR,2RS,6RS)-2-amino-8-azabicyclo[4.3.0]non-4-en-8-yl)-9-fluoro-3-methyl-7-oxo-2,3-dihydro-7H-pyrido[1,2,3-d,e][1,3,4]benzoxadiazine-6-carboxylic acid] | ≤ 0.015 | ≤ 0.015 | ≤ 0.015 | 0.5 (≈ 1.2 µM) | 16 (≈ 38.5 µM) | ≤ 0.015 | ≤ 0.015 | ≤ 0.015 | ≤ 0.015 | 0.5 (≈ 1.2 µM) | ≤ 0.015 | ≤ 0.015 | ≤ 0.015 | 16 (≈ 38.5 µM)
2 | CNC1C=CCC2CN(c3c(F)c(N)c4c(=O)c(C(=O)O)cn5c4c3OCN5C)CC21 (centres unmarked) [Example 4, 8-Amino-9-fluoro-3-methyl-10-(2-methylamino-8-azabicyclo[4.3.0]non-3-en-8-yl)-7-oxo-2,3-dihydro-7H-pyrido[1,2,3-d,e][1,3,4]benzoxadiazine-6-carboxylicacid] | 0.06 (≈ 0.14 µM) | 0.06 (≈ 0.14 µM) | ≤ 0.015 | 0.5 (≈ 1.16 µM) | 1 (≈ 2.33 µM) | ≤ 0.015 | ≤ 0.015 | 0.06 (≈ 0.14 µM) | 0.06 (≈ 0.14 µM) | ≤ 0.015 | 0.03 (≈ 0.0699 µM) | 0.03 (≈ 0.0699 µM) | 0.06 (≈ 0.14 µM) | 4 (≈ 9.31 µM)
3 | CN1COc2c(N3CC4CC=CC(N)C4C3)c(F)c(N)c3c(=O)c(C(=O)O)cn1c23 (centres unmarked) [Example 5, 8-Amino-10-(2-amino-8-azabicyclo[4.3.0]non-3-en-8-yl)-9-fluoro-3-methyl-7-oxo-2,3-dihydro-7H-pyrido[1,2,3-d,e][1,3,4]benzoxadiazine-6-carboxylic acid] | 0.03 (≈ 0.0722 µM) | 0.03 (≈ 0.0722 µM) | ≤ 0.015 | 0.125 (≈ 0.301 µM) | 0.25 (≈ 0.602 µM) | ≤ 0.015 | ≤ 0.015 | 0.03 (≈ 0.0722 µM) | 0.03 (≈ 0.0722 µM) | ≤ 0.015 | ≤ 0.015 | ≤ 0.015 | ≤ 0.015 | 2 (≈ 4.81 µM)
4 | CC1C=CC(N)C2CN(c3c(F)c(N)c4c(=O)c(C(=O)O)cn5c4c3OCN5C)CC12 (centres unmarked) [Example 7, 8-Amino-10-(2-amino-5-methyl-8-azabicyclo[4.3.0]non-3-en-8-yl)-9-fluoro-3-methyl-7-oxo-2,3-dihydro-7-H-pyrido[1,2,3-d,e][1,3,4]benzoxadiazine-6-carboxylic acid] | 0.03 (≈ 0.0699 µM) | 0.03 (≈ 0.0699 µM) | ≤ 0.015 | 0.25 (≈ 0.582 µM) | 0.5 (≈ 1.16 µM) | ≤ 0.015 | ≤ 0.015 | 0.03 (≈ 0.0699 µM) | ≤ 0.015 | ≤ 0.015 | ≤ 0.015 | ≤ 0.015 | 0.03 (≈ 0.0699 µM) | 2 (≈ 4.66 µM)
